Laboratory results from publication PMC9867332 (Pharmaceutics, 2022).
Read-outs that look alike come from different tables or passages of the source.

What was measured:
avian CoV-IBV [1] = experiment: microbe, parasite or virus in culture; type: cell-based; settings: for Virucidal Activity Inhibition (%): 2 h incubation with virus at 37 °C, qRT-PCR
[2] = MTT cytotoxicity assay on uninfected Vero cells; type: cell-based; settings: African green monkey, uninfected Vero cells (CCL-81), 3 days at 37 °C, read-out: CC50 (half-maximum cytotoxic concentration)
Method: Vero cells (CCL-81, American Type Culture Collection, Boston, MA, USA), used as a cellular model for antiviral bioassay, were cultured in Dulbecco’s modified Eagle’s medium (DMEM), supplemented with 10% fetal bovine serum (FBS) and gentamycin, and incubated at 37 °C with 5% CO2. They were used to adapt the avian Massachusetts serotype CoV-IBV strain.
Cell viability was evaluated using the MTT (3-(4,5-dimethylthiazol-2-yl)-2,5-diphe- nyltetrazolium bromide) method. The MTT assay is sensitive and reliable for cellular metabolic activity. It is based on the ability of nicotinamide adenine dinucleotide phosphate (NADPH)-dependent cellular oxidoreductase enzyme to reduce the tetrazolium dye to the purple formazan crystals. Sub-confluent Vero cells, seeded in 96-well microplates (2 × 10^6 cells/microplate; Thermo Fisher Scientific), were incubated with serial dilutions of synthesized molecules, in duplicates for 3 days at 37 °C. MTT solution (500 μg/mL) was then added, and the cells were incubated for further 4 h. The formed formazan crystals within metabolically viable cells were then dissolved in 100 µL of DMSO, and the absorption, proportional to viable cell number, was measured at 490 nm with a Thermo Scientific Multiskan FC. The results were expressed as a percentage of viable cells relative to the negative control (untreated cells cultured in standard medium and considered 100% viable). The half-maximum cytotoxic concentration (CC50), which was defined as the concentration which reduced the OD490 of the 1,3,4-oxadiazole-derived α-aminophosphonates/α-aminophosphonic acids-treated cells to 50% of that of untreated cells, were determined from the plotted curve of percentages of viable cells against compound concentrations.

avian CoV-IBV [3] = type: cell-based; settings: IBV titration in infected Vero cells, qRT-PCR, 3 days post-infection
IBV Beaudette strain = system: IBV Beaudette strain; parameters: method as in PMID 17479370; settings: 5 to 50 mM; cited from earlier work
IBV = system: IBV; parameters: method as in PMID 17479370; settings: dose-dependent, without virucidal effect; cited from earlier work
[4] = Avian coronavirus, 2 h, read-out: Virucidal Activity Inhibition (%)

Row | SMILES | inhibition at 33 µM (avian CoV-IBV [1]; [4]) [%] | CC50 at 3 days [2] [µM] | Antiviral Activity (avian CoV-IBV [3]; 33 µM) | inhibition at 3.66 µM (avian CoV-IBV [1]; [4]) [%] | Antiviral Activity (avian CoV-IBV [3]; 3.66 µM) | also measured
1 | O=P(O)(O)C(Nc1nnc(-c2ccccc2)o1)c1cc(C(F)(F)F)cc(C(F)(F)F)c1 (stereo not shown) [6e, [(5-Phenyl-1,3,4-oxadiazol-2-ylamino)(3,5-bis-trifuoromethyl-phenyl)methyl] phosphonic acid] | 22.7 ± 3.25 | ~550 | Not active |  |  | 
2 | CCOP(=O)(OCC)C(Nc1nnc(-c2ccccc2)o1)c1ccc(F)cc1 (stereo not shown) [5c, diethyl[(5-phenyl-1,3,4-oxadiazol-2-ylamino)(4-fluorophenyl)methyl]phosphonate] |  | ~550 |  | 46 ± 1.49 | Not active | 
3 | O=P(O)(O)C(Nc1nnc(-c2ccccc2)o1)c1ccc(C(F)(F)F)cc1 (stereo not shown) [6a, [(5-phenyl-1,3,4-oxadiazol-2-ylamino)(4-trifluoromethylphenyl)methyl] phosphonic acid] |  | ~550 |  |  |  | Virucidal Activity Inhibition (%) (avian CoV-IBV [1]; 1.23 µM): strongly inhibited the IBV infectivity; inhibition at 1.23 µM (avian CoV-IBV [1]; [4]): 75 ± 0.75%; melting point: > 260 °C; Antiviral Activity (avian CoV-IBV [3]; 1.23 µM): Not active
4 | O=P(O)(O)C(Nc1nnc(-c2ccccc2)o1)c1ccc(F)cc1 (stereo not shown) [6c, [(5-Phenyl-1,3,4-oxadiazol-2-ylamino)(4-fluorophenyl)methyl]phosphonic acid] | 59.6 ± 1.34 |  | Not active |  |  | 
5 | CCOP(=O)(OCC)C(Nc1nnc(-c2ccccc2)o1)c1ccc([N+](=O)[O-])cc1 (stereo not shown) [5b, diethyl[(5-phenyl-1,3,4-oxadiazol-2-ylamino) (4-nitrophenyl)methyl]phosphonate] | 35 ± 0.53 | 1599 ± 4.73 | Not active |  |  | 
6 | [Cl-].[Li+] [LiCl, lithium chloride] |  |  |  |  |  | virucidal activity (virus titre after incubation) (IBV Beaudette strain): did not modify the title of the virus; replication of IBV in Vero cells (IBV): suppress the replication of IBV in Vero cells in a dose-dependent manner
7 | O=[N+]([O-])c1ccc(C(Nc2nnc(-c3ccccc3)o2)P(=O)(O)O)cc1 (stereo not shown) [6b, [(5-Phenyl-1,3,4-oxadiazol-2-ylamino)(4-nitrophenyl)methyl]phosphonic acid] |  | ~550 |  | 31.4 ± 2.4 | Not active | 
8 | CCOP(=O)(OCC)C(Nc1nnc(-c2ccccc2)o1)c1ccc(OC(F)(F)F)cc1 (stereo not shown) [5f, diethyl[(5-phenyl-1,3,4-oxadiazol-2-ylamino)(4-trifluoromethoxyphenyl)methyl]phosphonate] | 86.1 ± 1.58 |  | Not active |  |  | Virucidal Activity Inhibition (%) (avian CoV-IBV [1]; 33 µM): strongly inhibited the IBV infectivity; melting point: 106.6 to 107.5 °C
9 | O=P(O)(O)C(Nc1nnc(-c2ccccc2)o1)c1cc(F)c(F)c(F)c1 (stereo not shown) [6d, [(5-Phenyl-1,3,4-oxadiazol-2-ylamino)(3,4,5-trifluophenyl)methyl]phosphonic acid] |  | ~550 |  | 25 ± 1.15 | Not active | 
